SMILES strings stand for the structures.

Data on five molecules can be found in patent publication US10959992B2, “Methods of treatment of asthma and COPD” (Bridge Pharma, Inc., priority 2019, dated 2021).

Data set [1] relates to PAF-induced eosinophilia. Briefly: PAF-induced pulmonary eosinophil accumulation after continuous subcutaneous dosing. Format: in vivo, Sprague-Dawley rats. The settings on record: 1 mg/kg/day sc for 6 days, rats; BSA + saline control 100, PAF control 250. On the procedure: Male Sprague-Dawley rats, 400-600 g, were used in these studies.
The study described here used subcutaneous administration of norketotifen and ketotifen by Alzet® osmotic pumps. The rats were administered either RS-norketotifen hydrogen fumarate (1.0 mg/kg/day) or RS-ketotifen hydrogen fumarate (1.0 mg/kg/day) or saline. After five days of sc infusions of test articles and the vehicle, the animals were injected, i.p. with 10 μg PAF (platelet aggregating factor) in 0.25% bovine serum albumin (BSA) in saline. The subcutaneous infusions of test articles or vehicle were continued for another twenty-four hours and the animals were then sacrificed by intraperitoneal injections of a barbiturate. The tracheae of the euthanized animals were exposed and cannulated and aliquots (6×10 ml) of a Tyrode solution were successively introduced into the lungs and aspirated by gentle compression of the thorax. The total recovery of lung fluid was usually above 80%. The cell suspensions were concentrated by low speed centrifugation (200 g for 10 min) and the resulting cell pellet was resuspended in 1 ml of a Tyrode solution. Total cell counts were performed after dilution in Turks fluid, fixation in methanol and Leishman staining.
The study shown here used norketotifen, ketotifen, and saline (control) after continuous dosing with Alzet® Osmotic pumps.

For data set [2], the system named is IL-6. Nature of the data set: PHA-induced release of IL-6 from human buffy coats. Format: cell-based. The note with it: 10 uM; PHA 5 μg/ml, 16 hours; inhibition. On the procedure: (§1) The study was conducted in two phases. The first phase included optimization of the test methodology and included also dose-range finding studies, using buffy coats from 3 human donors, stimulated with phytohemagglutinin (PHA). The concentrations of the test article and the duration of exposure were optimized to obtain acceptable dose-response ratios. Following optimization of the test conditions, a final protocol was issued. In the Main Study, buffy coats from 5 healthy human male donors were stimulated with PHA, 5 μg/ml.
(§2) The inhibitory effects of three concentrations of NK and one concentration of ketotifen were evaluated in the Main Study. The buffy coats were resuspended in assay media and were pre-incubated for 30 min with either vehicle/saline, ketotifen (10 μM) or norketotifen (1.0; 10 or 100 μM). Following these preincubations, the white blood cell suspensions were stimulated for 16 hours with PHA, 5 μg/ml. The cell system supernatants were then harvested and stored frozen.

Data set [3] has as its system TNF-α. Briefly: PHA-induced release of TNF-α from human buffy coats. Format: cell-based. The note with it: 10 uM; PHA 5 μg/ml, 16 hours; inhibition. The protocol:
as §1, §2

The subject of data set [4] is IL-2. Nature of the data set: PHA-induced release of IL-2 from human buffy coats. Format: cell-based. The settings on record: 10 uM; PHA 5 μg/ml, 16 hours; inhibition. The protocol: as §1, §2
Data set [5] concerns IL-4. Nature of the data set: PHA-induced release of IL-4 from human buffy coats. Format: cell-based. The note with it: 10 uM; PHA 5 μg/ml, 16 hours; inhibition. On the procedure: as §1, §2
The subject of data set [6] is IL-13. Briefly: PHA-induced release of IL-13 from human buffy coats. The note with it: 10 uM; PHA 5 μg/ml, 16 hours; inhibition. Format: cell-based. On the procedure: as §1, §2
For data set [7], the system named is IL-8. Nature of the data set: PHA-induced release of IL-8 from human buffy coats. Format: cell-based. The note with it: 10 uM; PHA 5 μg/ml, 16 hours; inhibition. The protocol: as §1, §2
Data set [8] concerns IL-10. Nature of the data set: PHA-induced release of IL-10 from human buffy coats. Format: cell-based. The settings on record: 10 uM; PHA 5 μg/ml, 16 hours; inhibition. The protocol: as §1, §2
The subject of data set [9] is IL-1β. Nature of the data set: PHA-induced release of IL-1β from human buffy coats. Format: cell-based. The settings on record: 10 uM; PHA 5 μg/ml, 16 hours; inhibition. The protocol: as §1, §2
Data set [10] concerns IFN-γ. Briefly: PHA-induced release of IFN-γ from human buffy coats. It is filed as cell-based. The settings on record: 10 uM; PHA 5 μg/ml, 16 hours; inhibition. On the procedure:
as §1, §2

The subject of data set [11] is croton oil-induced ear swelling. Nature of the data set: Croton oil-induced ear swelling. Format: in vivo, CD-1 female mice. The arrangement: Average ear thickness: unit not given beside the values. The note with it: for Average ear thickness: single oral dose 10 mg/kg 60 min before. The protocol: The effects of NK, PRED and the vehicle (5% PEG in water) were tested orally in CD-1 female mice. Under the test protocol, 20 μl of 1.0% croton oil in acetone was applied topically to both ears of three groups of mice, each group consisting of 6 mice. No attempt was made to remove the croton oil solution since the solvent evaporated within 30 seconds. The oral doses of NK and PRED were 10 mg/kg (10 ml/kg) bodyweight for both compounds and were administered 60 min before the croton oil applications. Vehicle-treated mice were dosed 10 ml/kg of water, containing 5% polyethylene glycol (PEG), which was also the solvent for the test articles. Ear thickness was measured with an electronic caliper and mean ear thickness (N=12; right+left ears) were calculated and compared with the thickness of ears from vehicle-treated mice (Student's t-test).

Data set [12] deals with oxazolone-induced increase in ear thickness. Nature of the data set: Oxazolone test of immunosuppression (ear thickness). The settings on record: for Increase in ear thickness (mm): control 0.153; for Increase in ear thickness (%): control 100.0. Format: in vivo, BALB/c mice. On the procedure:
Male BALB/c mice, 20-24 grams, 7-12 weeks, were used. The sensitization dosing (Day 1) consisted of painting the ventral portion of the pre-shaved abdominal skin with 0.1 ml of 3.0% oxazolone in 70% ethanol. Test articles were administered orally in 1.0% methyl-cellulose, starting on Day 1 and continuing for 10 consecutive days. The challenge dosing consisted of the application of 0.05 ml of 3.0% oxazolone in 70% ethanol on both sides of the outer pinna of the right ear. The thickness of both ears of all animals was measured with a calliper before the challenge dose and 24 hours after the administration of the challenge dose (Day 10). The ear thickness of untreated mice was 0.19 to 0.20 mm.
Justification of the model: The classic oxazolone test method was used with minor modifications. This method has been used for over 40 years in numerous drug development projects.

The subject of data set [13] is sedation. The settings on record: art-accepted mouse model of sedation; U.S. Pat. Nos. 7,226,934 and 7,557,128; cited from earlier work.

For `CN1CCC(=C2c3ccccc3CC(=O)c3sccc32)CC1.O=C(O)/C=C/C(=O)O` [Ketotifen HF, RS-ketotifen hydrogen fumarate, reference compound], in data set [1], the “PAF-induced esosinophilia (% ± SEM)” value was found to be 110 ± 3%.
With `CN1CCC(=C2c3ccccc3CC(=O)c3sccc32)CC1` [Ketotifen, ketotifen, reference compound], the “Effect on PHA-induced release of IL-6 (%)” value in [2] turned out to be 0.00%. For the same molecule, the “Effect on PHA-induced release of TNF-α (%)” value in data set [3] is on record as 39.98%. In data set [4], the “Effect on PHA-induced release of IL-2 (%)” value is on record as 0.00%. In data set [5], the “Effect on PHA-induced release of IL-4 (%)” value is 0.00%. Further, the “Effect on PHA-induced release of IL-13 (%)” value in data set [6] is listed as 0.00%. In addition, the “Effect on PHA-induced release of IL-8 (%)” value in data set [7] was found to be 30.73%. Also, in data set [8], the “Effect on PHA-induced release of IL-10 (%)” value is given as 0.00%. Besides, the “Effect on PHA-induced release of IL-1β (%)” value in data set [9] was found to be 0.00%. The “Effect on PHA-induced release of IFN-γ (%)” value in data set [10] is 0.00%.
Turning to `O=C(O)C=CC(=O)O.O=C1Cc2ccccc2C(=C2CCNCC2)c2ccsc21` [Norketotifen HF, RS-norketotifen hydrogen fumarate], the “PAF-induced esosinophilia (% ± SEM)” value in data set [1] amounted to 74 ± 4%.
Turning to `C[C@]12C=CC(=O)C=C1CC[C@@H]1[C@@H]2[C@@H](O)C[C@@]2(C)[C@H]1CC[C@]2(O)C(=O)CO` [PRED, prednisolone], the Average ear thickness turned out to be 0.22 ± 0.01 in data set [11] (0 (predose) min after croton oil, vehicle 0.21 ± 0.02); 0.28 ± 0.01 in data set [11] (90 min after croton oil, vehicle 0.29 ± 0.04); 0.27 ± 0.01 in data set [11] (120 min after croton oil, vehicle 0.28 ± 0.02). The “Anti-inflammatory effect compared with vehicle control group (conclusion in words)” value in data set [11] (single oral dose 10 mg/kg, croton oil ear swelling in mice) is “did not express statistically significant anti-inflammatory effect”. Besides, the entries for the “Immunosuppression (%)” value in data set [12] (0.3 mg/kg/day oral for 10 days), in data set [12] (1.0 mg/kg/day oral for 10 days) and in data set [12] (3.0 mg/kg/day oral for 10 days) were 29.4%, 45.0% and 50.3%, respectively. The “Increase in ear thickness (mm)” value in data set [12] (0.3 mg/kg/day oral for 10 days) is given as 0.108 mm; in [12] (1.0 mg/kg/day oral for 10 days), 0.084 mm; in data set [12] (3.0 mg/kg/day oral for 10 days), 0.076 mm. The “Increase in ear thickness (%)” value stood at 70.6% in data set [12] (0.3 mg/kg/day oral for 10 days), 55.0% in [12] (1.0 mg/kg/day oral for 10 days) and 49.7% in [12] (3.0 mg/kg/day oral for 10 days). Moreover, in data set [12] (daily oral dosing for 10 days to mice, RS-norketotifen 10 or 30 mg/kg, prednisolone at 10 times lower doses), the “Immuno-suppressant activity (conclusion in words)” value is “potent and dose-dependent immune suppression”.
As to `O=C(O)/C=C/C(=O)O.O=C1Cc2ccccc2C(=C2CCNCC2)c2ccsc21` [R-isomer, R-norketotifen], the Sedative effects entry in data set [13] was “sedative effects were attributed to the R-isomer”.
